Structures are written as SMILES.

The test system of one assay is rabbit aortic strip. Briefly: Cascade Assay, aorta (smooth muscle stimulant effect). In kind it is cell-based. As to conditions: superfused, 50% of maximum (PGA2). An outline of the steps: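 Rabbit aortic strip (4 g tension), rat stomach fundus, rat colon and chick rectum (1 g) in cascade, superfused at 10 ml/min with 37° C Krebs containing cholinergic, adrenergic, serotonin and histamine blockers. Doses of 0.001–100,000 ng dripped on at 10–20 min intervals; maximal tension rise gave graphical ED50 per tissue.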

The subject of assay [1] is Blood Pressure and Heart Rate. Put plainly: Effects on Blood Pressure and Heart Rate in the Anesthetized Cat. The class given is in vivo. The settings on record: Felis catus, intravenous, 0.01 to 10.0 mcg/kg, scored only on hypotension, read-out: Test D Activity Value (ED50 mmHg, decrease in blood pressure). An outline of the steps:
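Cats of either sex anesthetized with pentobarbital sodium (35 mg/kg i.v.) plus barbital sodium (100 mg/kg i.v.), femoral arterial pressure and ECG-driven heart rate recorded. Compound given i.v. at one-log increasing doses, 0.01–10.0 mcg/kg, every 10 min. ED50 mmHg (dose lowering blood pressure by 50 mmHg) derived graphically from hypotension.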

The subject of the next assay is Rat Uterus. Put plainly: Effects on the Rat Uterus in Vitro. In kind it is cell-based. As to conditions: Rattus norvegicus; in vitro, 29° C; response 50% that of carbachol; read-out: Test F Rat Uterus, Activity Value (ED50). The method in brief: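 Uterine segments came from rats (140–160 g) given 1 mg/kg diethylstilbestrol s.c. 18 h earlier. Tissue was held isometrically at 1 g tension in de Jalon solution at 29 °C, gassed with 95% O2/5% CO2. Compound was tested at 0.001–10 mcg/ml in log steps, every 10 min with washes, and ED50 was derived graphically as 50% of the second carbachol (1 mcg/ml) response.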

For `COC(=O)CCCCCC[C@H]1C(=O)C[C@@H](O)[C@@H]1/C=C/[C@H](O)C1CC2(CCC2)C1` [TR-4120, Methyl 7-{3R-hydroxy-5-oxo-2R-[3R-hydroxy-3-(spiro[3.3]hept-2-yl)-1E-propenyl]cyclopent-1R-yl}heptanoate], in the assay with rabbit aortic strip, the “Test E Cascade Assay, Aorta, Activity Value (ED50)” value is listed as 0 (>10000). Besides, in assay [1], the ED (50 mmHg) is over 0.01 mg/kg. In addition, in the assay on Rat Uterus, the EC50 is over 10 µg/mL.

(Values after patent US4098823A, “Monospiroalkyl derivatives of prostaglandins” (Miles Laboratories, Inc., priority 1977, dated 1978).)
